Assay results published in paper PMC4086519, “Anti-Trichophyton Activity of Protocatechuates and Their Synergism with Fluconazole” (Evidence-based Complementary and Alternative Medicine : eCAM, 2014).
≈ marks a conversion by molar mass, not a printed value.

Assays:
[1] = test system: Trichophyton mentagrophytes; assay: Broth microdilution MIC (CLSI M38-A2, modified); assay type: cell-based; conditions: 35°C, 7 days
Procedure: (§1) To evaluate its antifungal activity, […] of dermatophytes were tested: two clinical strains of Trichophyton rubrum (Tr1 and Tr2), Trichophyton rubrum ATCC MYA 3108, two clinical strains of Trichophyton mentagrophytes (Tm1 and Tm2), and Trichophyton mentagrophytes ATCC 40131 (Tm3). The microorganisms were obtained from the collection of the Clinical Mycology Laboratory of the Department of Clinical Analyses at the School of Pharmaceutical Sciences of Universidade Estadual Paulista (UNESP). The strains were cultivated on Sabouraud dextrose agar (Difco, BD Biosciences) and incubated at 28°C for 7-15 days. For all experiments, the strains were cultivated on Potato Dextrose Agar (Difco, BD Biosciences) and incubated at 28°C as described above or until sporulation. The dilution of the synthetic compounds was performed with DMSO (Synth, Diadema, Sao Paulo, Brazil) as described by Scorzoni et al.. […] The antifungal drugs were diluted according to the CLSI […]-A2 document. Stock solutions of Fluconazole (Sigma-Aldrich, St. Louis, MO, USA) were prepared, considering its power. Serial twofold dilutions were prepared according to the recommendations of Zhang and collaborators, with some modifications. The antifungal activity tests were performed using the broth microdilution method as described in […]-A2, a document produced by the Clinical and Laboratory Standards Institute (CLSI, 2008), with modifications. The medium used was RPMI 1640 with L-glutamine (Sigma-Aldrich, St. Louis, MO, USA) buffered to pH 7.0 with 0.165 M morpholinepropanesulfonic acid (MOPS) (Sigma-Aldrich, St. Louis, MO, USA), supplemented with 2% glucose. […] The suspension of conidia was then transferred to small sterile test tubes where they remained for 40 minutes to separate the microconidia, which were lighter and therefore present in the supernatant. […] These suspensions were diluted in RPMI 1640 (Sigma-Aldrich, St. […] Positive (100 μL of RPMI medium with 100 μL of inoculum) and negative (200 μL of RPMI) controls were included in all experiments. The plates were incubated with agitation at 35°C for 7 days. The MIC reading was performed by spectrophotometry at 490 nm.

Trichophyton rubrum [2] = assay: Broth microdilution MIC (CLSI M38-A2, modified); assay type: cell-based; conditions: 35°C, 7 days
Procedure: as §1

[3] = test system: Trichophyton mentagrophytes; assay: Minimum fungicide concentration (MFC); assay type: cell-based
Procedure: (§2) A qualitative analysis of the fungal viability was performed by transferring a portion of the wells to a plate with Sabouraud (Difco, BD Biosciences) medium and incubating it at 35°C for the time determined for each fungal agent. […] A visual reading was performed to confirm the death or growth inhibition provided by fluconazole and the sixteen semisynthetic substances derived from protocatechuic acid.

Trichophyton rubrum [4] = assay: Minimum fungicide concentration (MFC); assay type: cell-based
Procedure: as §2

[5] = test system: Trichophyton mentagrophytes; assay: Checkerboard synergism assay with fluconazole; assay type: cell-based; conditions: for MIC, substances alone: checkerboard, 168 hours
Procedure: (§3) The drug activity was assessed using a checkerboard method derived from a standardised procedure established by the National Committee for Clinical Laboratory Standards ([…]-A2). Briefly, the test was performed on the same medium used for susceptibility testing. Volumes of 50 μL of each drug in a concentration four times the final concentration were dispensed in 96-well plates ([…], Switzerland). To each well, 100 μL of the fungal suspension was added to produce a final concentration of 5.0 × 10^3 CFU/mL. As a negative control, we used 200 μL of RPMI, while as a positive control, we used 100 μL of RPMI medium with 100 μL of inoculum. The plates were incubated at 35°C, and the reading was completed after 168 hours. We conducted visual and spectrophotometric readings at 490 nm. To determine the effect of combinatorial fractions, we calculated the fractional inhibitory concentration (FIC). The FIC was calculated by taking the MIC of the substance in combination/MIC of the substance alone. The sum of the fractional inhibitory concentration (FIC) of each substance consists of the fractional inhibitory concentration index: (the MIC of drug A in combination/the MIC of drug A alone) + (the MIC of drug B in combination/the MIC of drug B alone).

Trichophyton rubrum [6] = assay: Checkerboard synergism assay with fluconazole; assay type: cell-based; conditions: for MIC, substances alone: Tr1, checkerboard, 168 hours
Procedure: as §3

[7] = test system: NOK (oral human keratinocyte) cell lines; assay: Sulphorhodamine B cytotoxicity assay; assay type: cell-based; conditions: NOK cells, 24 hours
Procedure: The cytotoxicity of sixteen semisynthetic compounds derived from protocatechuic acid was assessed using a sulphorhodamine B assay in NOK (oral human keratinocyte) cell lines obtained from the American Type Culture Collection (Manassas, VA, USA). The strains were maintained in bottles appropriate for cell culture with keratinocyte serum free medium (Gibco, Life Technologies) and incubated in standard conditions of 37°C and 5% CO2. Cell concentrations ranging from 2.5 to 5.0 × 10^4 cells/mL were used for the formation of cell monolayers. The concentrations of pure substances were kept in contact with the cells for 24 hours. After the incubation period, the cells were treated with the sulphorhodamine B reagent (Sigma-Aldrich, St. Louis, MO, USA) as previously described by Skehan et al., with some modifications.

Saccharomyces cerevisiae = test system: Saccharomyces cerevisiae; set-up: method as in PMID 14592492; conditions: cited from earlier work
[8] = Tm3, T. mentagrophytes ATCC 40131
[9] = Tr1, T. rubrum clinical isolate
[10] = Tr2, T. rubrum clinical isolate

SMILES | MIC ([1]; Tm1, clinical isolate) [mg/L] | MIC ([1]; Tm2, clinical isolate) [mg/L] | MIC [1, 8] [mg/L] | MIC (Trichophyton rubrum [2]; [9]) [mg/L] | MIC (Trichophyton rubrum [2]; [10]) [mg/L] | MIC (Trichophyton rubrum [2]; Tr3, T. rubrum ATCC MYA 3108) [mg/L] | MFC ([3]; Tm1, clinical isolate) [mg/L] | MFC ([3]; Tm2, clinical isolate) [mg/L] | MFC [3, 8] [mg/L] | MFC (Trichophyton rubrum [4]; [9]) [mg/L] | MFC (Trichophyton rubrum [4]; [10]) [mg/L] | MFC (Trichophyton rubrum [4]; Tr3, T. rubrum ATCC MYA 3108) [mg/L] | FIC index [5] | MIC of the protocatechuate, substances combined [5] [mg/L] | association type (in words) [5] | MIC, substances alone ([5]; Tm1) [mg/L] | MIC, substances alone ([5]; Tm3 (ATCC 40131)) [mg/L] | FIC index (Trichophyton rubrum [6]) | MIC of the protocatechuate, substances combined (Trichophyton rubrum [6]) [mg/L] | association type (in words) (Trichophyton rubrum [6]) | further results
CCCCCCOC(=O)c1ccc(O)c(O)c1 [Protocatechuate hexyl, hexyl protocatechuate] | 1.95 (≈ 8.18 µM) | 3.9 (≈ 16.4 µM) | 3.90 (≈ 16.4 µM) | 3.9 (≈ 16.4 µM) | 1.95 (≈ 8.18 µM) | 3.9 (≈ 16.4 µM) | 3.90 (≈ 16.4 µM) | 3.9 (≈ 16.4 µM) | 7.80 (≈ 32.7 µM) | 3.9 (≈ 16.4 µM) | 3.90 (≈ 16.4 µM) | 3.9 (≈ 16.4 µM) | 0.72 | 0.03 | additive | 1.9 | 3.9 | 1.1 | 0.48 | indifferent | reduction in the MIC of the protocatechuate (Trichophyton rubrum [6]): 8.125 times; MIC, substances alone (Trichophyton rubrum [6]): 3.9 mg/L; Cytotoxicity IC50 [7]: 66.5 mg/L
CCCCCCCCCOC(=O)c1ccc(O)c(O)c1 [Protocatechuate nonyl, nonyl protocatechuate] | 3.9 (≈ 13.9 µM) | 3.9 (≈ 13.9 µM) | 3.9 (≈ 13.9 µM) | 1.95 (≈ 6.96 µM) | 3.9 (≈ 13.9 µM) | 1.95 (≈ 6.96 µM) | 3.9 (≈ 13.9 µM) | 3.9 (≈ 13.9 µM) | 3.9 (≈ 13.9 µM) | 1.95 (≈ 6.96 µM) | 3.9 (≈ 13.9 µM) | 3.90 (≈ 13.9 µM) | 1.0 | 0.03 | additive | 3.9 | 3.9 | 1.0 | 0.03 | additive | MIC of fluconazole, substances combined [5]: 0.5 mg/L; reduction in the MIC of the protocatechuate [5]: 130 fold; reduction in the MIC of the protocatechuate (Trichophyton rubrum [6]): 63.33 times; MIC, substances alone (Trichophyton rubrum [6]): 1.9 mg/L; Cytotoxicity IC50 [7]: 52.1 mg/L
CCCCCCCCOC(=O)c1ccc(O)c(O)c1 [Protocatechuate octyl, octyl protocatechuate] | 1.95 (≈ 7.32 µM) | 1.95 (≈ 7.32 µM) | 3.9 (≈ 14.6 µM) | 1.95 (≈ 7.32 µM) | 7.8 (≈ 29.3 µM) | 0.97 (≈ 3.64 µM) | 3.90 (≈ 14.6 µM) | 1.95 (≈ 7.32 µM) | 3.9 (≈ 14.6 µM) | 1.95 (≈ 7.32 µM) | 7.8 (≈ 29.3 µM) | 1.95 (≈ 7.32 µM) | 0.72 | 0.03 | additive | 1.9 | 3.9 | 1.0 | 0.06 | additive | reduction in the MIC of the protocatechuate (Trichophyton rubrum [6]): 31.66 times; MIC, substances alone (Trichophyton rubrum [6]): 1.9 mg/L; Cytotoxicity IC50 [7]: 54.0 mg/L; fungicidal activity (Saccharomyces cerevisiae): fungicidal activity
CCCCCOC(=O)c1ccc(O)c(O)c1 [Protocatechuate pentyl, pentyl protocatechuate] | 3.90 (≈ 17.4 µM) | 7.8 (≈ 34.8 µM) | 7.8 (≈ 34.8 µM) | 7.8 (≈ 34.8 µM) | 7.8 (≈ 34.8 µM) | 7.8 (≈ 34.8 µM) | 15.6 (≈ 69.6 µM) | 7.8 (≈ 34.8 µM) | 7.8 (≈ 34.8 µM) | 7.8 (≈ 34.8 µM) | 7.8 (≈ 34.8 µM) | 7.8 (≈ 34.8 µM) | 1.0 | 0.03 | additive | 3.9 | 7.8 | 1.0 | 7.8 | additive | MIC of fluconazole, substances combined [5]: 0.5 mg/L; reduction in the MIC of the protocatechuate [5]: 130 fold; MIC of fluconazole, substances combined (Trichophyton rubrum [6]): 0.12 mg/L; reduction in the MIC of fluconazole (Trichophyton rubrum [6]): 16.66 times; MIC, substances alone (Trichophyton rubrum [6]): 7.8 mg/L; Cytotoxicity IC50 [7]: 57.0 mg/L
